Series [1] relates to Hepatitis C virus. Description: Antiviral activity against Hepatitis C virus subtype 1b by stable replicon assay. Format: functional, organism-based, Hepacivirus hominis. As to conditions: genotype 1b. For orientation: Replicon systems follow genome replication, usually without infectious particles.
The nature of series [2]: Terminal half life in rat at 5 mg/kg, po. Format: ADME, organism-based. The arrangement: dose 5 mg/kg, route oral. As to conditions: in vivo, read-out: beta t1/2 (converted).
Series [3] in a line: AUC in rat at 5 mg/kg, po. Format: ADME, organism-based, Plasma. Also on record: dose 5 mg/kg, route oral. Particulars: plasma.
Series [4] concerns Hepatitis C virus. Nature of the series: Antiviral activity against Hepatitis C virus subtype 1b harboring protease A156T mutant by transient replicon assay. Format: functional, organism-based, Hepacivirus hominis. As to conditions: genotype 1b.
Series [5] has as its system Hepatitis C virus. Description: Antiviral activity against Hepatitis C virus subtype 1b harboring protease A156V mutant by transient replicon assay. Format: functional, organism-based, Hepacivirus hominis. As to conditions: genotype 1b.
Series [6] is described as follows: Maximum drug absorption in rat at 5 mg/kg, po. Format: ADME, organism-based. The arrangement: dose 5 mg/kg, route oral. Particulars: in vivo, read-out: Drug absorption.
The test system of series [7] is Hepatitis C virus. Nature of the series: Antiviral activity against Hepatitis C virus subtype 1b harboring protease D168V mutant by transient replicon assay. Format: functional, organism-based, Hepacivirus hominis. Particulars: genotype 1b.
In series [8] the test system is Rattus norvegicus. Nature of the series: Dose normalized AUC in rat at 5 mg/kg, po. Also on record: dose 5 mg/kg, route oral. Format: ADME, organism-based. As to conditions: in vivo.
The subject of series [9] is Hepatitis C virus. Description: Antiviral activity against Hepatitis C virus subtype 1b harboring protease D168A mutant by transient replicon assay. Format: functional, organism-based, Hepacivirus hominis. As to conditions: genotype 1b.
Series [10] deals with Hepatitis C virus. Nature of the series: Resistance index, ratio of EC50 for Hepatitis C virus subtype 1b harboring protease D168V mutant to EC50 for wild type Hepatitis C virus subtype 1b. Format: functional, Hepacivirus hominis, genotype 1b.
The subject of series [11] is Hepatitis C virus. Description: Resistance index, ratio of EC50 for Hepatitis C virus subtype 1b harboring protease R155K mutant to EC50 for wild type Hepatitis C virus subtype 1b. Format: functional, Hepacivirus hominis, genotype 1b.
For series [12], the system named is Hepatitis C virus. Nature of the series: Antiviral activity against Hepatitis C virus subtype 1b harboring protease A156S mutant by transient replicon assay. Format: functional, organism-based, Hepacivirus hominis. As to conditions: genotype 1b.
A short description of series [13]: AUC in rat at 1 mg/kg, iv. Format: ADME, organism-based, Plasma. Particulars: plasma. Also on record: dose 1 mg/kg, route intravenous.
The test system of series [14] is Hepatitis C virus. Description: Antiviral activity against wild type Hepatitis C virus subtype 1b by transient replicon assay. Particulars: genotype 1b. Format: functional, organism-based, Hepacivirus hominis.
For series [15], the system named is Hepatitis C virus. Nature of the series: Antiviral activity against Hepatitis C virus subtype 1b harboring protease R155K mutant by transient replicon assay. Format: functional, organism-based, Hepacivirus hominis. As to conditions: genotype 1b.
The subject of series [16] is Hepatitis C virus. Nature of the series: Resistance index, ratio of EC50 for Hepatitis C virus subtype 1b harboring protease D168A mutant to EC50 for wild type Hepatitis C virus subtype 1b. Format: functional, Hepacivirus hominis, genotype 1b.
A short description of series [17]: Inhibition of HCV 1a protease 1a domain. The arrangement: species or system Hepacivirus hominis.
Series [18] concerns Hepatitis C virus. Description: Antiviral activity against Hepatitis C virus subtype 1a by stable replicon assay. Format: functional, organism-based, Hepacivirus hominis.
A short description of series [19]: Oral bioavailability in rat at 5 mg/kg. Format: ADME, organism-based. As to conditions: in vivo.
Series [20] concerns Rattus norvegicus. Description: Hepatic clearance in rat at 1 mg/kg, iv. The arrangement: dose 1 mg/kg, route intravenous. Format: ADME, organism-based, Liver. Particulars: in vivo.

Molecules are shown by their SMILES.

In the case of `COc1ccc2c(O[C@@H]3C[C@H]4C(=O)N[C@]5(C(=O)NS(=O)(=O)C6CC6)C[C@H]5/C=C\CCCCC[C@H](NC(=O)N5CCC5)C(=O)N4C3)cc(-c3nc(C(C)C)cs3)nc2c1C`, the EC50 in series [1] came to 0.4 nM; in series [4], 2 nM; in [5] it was 8 nM; in series [7] it was 97 nM; in series [9], 60 nM; in series [12], 0.2 nM. Besides, the results for the EC50 in [14], in series [15] and in [18] were 0.1 nM, 20 nM and 0.8 nM, respectively. Moreover, in [2], the half-life is 2.26 h. In addition, the AUC in series [3] is 40.5 ng·h/mL; in series [13], 107 ng·h/mL. The Fa in [6] turned out to be 7.6%. Moreover, the AUC/dose in series [8] was 0.008 kg·µg·h/mL/mg. Moreover, the “Ratio EC50” value in [10], in series [11] and in series [16] was under 1000 throughout. Also, in [17], the IC50 turned out to be 4 nM. In [19], this compound showed a bioavailability of 4.2%. Besides, in [20], the CLH amounted to 160.3 mL/min/kg.
Regarding `CC(C)(C)OC(=O)N[C@H]1CCCCC/C=C\[C@@H]2C[C@@]2(C(=O)NS(=O)(=O)C2CC2)NC(=O)[C@@H]2C[C@@H](OC(=O)N3Cc4cccc(F)c4C3)CN2C1=O` [DANOPREVIR], the EC50 in series [1] worked out at 1.5 nM; in series [4], 10 nM; in series [5] it was 8 nM; in series [7], 26 nM; in series [9] it was 39 nM; in series [12], 2 nM. Besides, the EC50 is 0.2 nM in series [14], 82 nM in series [15] and 2 nM in series [18]. In addition, the “Ratio EC50” value in [10], in series [11] and in series [16] was 10 throughout. Moreover, the IC50 in series [17] turned out to be 0.7 nM.
Take `COc1ccc2c(O[C@@H]3C[C@H]4C(=O)N[C@@]5(C(=O)NS(=O)(=O)C6CC6)C[C@@H]5/C=C/CCCCN(C)C(=O)[C@@H]4C3)cc(-c3nc(C(C)C)cs3)nc2c1C`: the EC50 is 1 nM in [1]; 86 nM in series [4]; 344 nM in [5]; 140 nM in series [7]; 149 nM in series [9]; 0.3 nM in [12]. Moreover, the EC50 was 1 nM in series [14], 56 nM in series [15] and 2 nM in series [18]. Moreover, the “Ratio EC50” value in series [10], in series [11] and in [16] was 0.3 in each case. The compound further gave an IC50 in [17] of 10 nM.

For orientation: EC50 means the concentration needed to bring the measured effect to its halfway point. A lower EC50 goes with an effect from little substance. As usually defined, the AUC is concentration integrated over time. A low value points to low exposure. As a reminder, the IC50 is the point on the concentration scale where inhibition reaches its midpoint. As usually defined, the bioavailability is dose-corrected exposure relative to a reference, in per cent. A high value points to good availability.

Source of the values: ChEMBL document CHEMBL2034968, “Discovery of novel urea-based hepatitis C protease inhibitors with high potency against protease-inhibitor-resistant mutants” (J Med Chem, 2012).
